Reference: ChEMBL document CHEMBL4507293 (2021)

Experiments:
[1] = target: Mitogen-activated protein kinase kinase kinase kinase 1 (Homo sapiens) (UniProt Q92918); settings: Compound concentration 100.0 nM
[2] = target: Mitogen-activated protein kinase kinase kinase 2 (Homo sapiens) (UniProt Q9Y2U5); settings: Compound concentration 100.0 nM
[3] = target: 5-hydroxytryptamine receptor 3A (Homo sapiens) (UniProt P46098); settings: Compound concentration 10.0 uM
[4] = target: Sodium-dependent dopamine transporter (Homo sapiens) (UniProt Q01959); settings: Compound concentration 10.0 uM
[5] = target: B1 bradykinin receptor (Homo sapiens) (UniProt P46663); assay: Inhibition of Bradykinin B1 at 10 µM in the Eurofins-Panlabs radioligand binding assay (Eurofins_assay_212510); settings: Compound concentration 10.0 uM
B1 bradykinin receptor (Homo sapiens), sequence (P46663 whole entry): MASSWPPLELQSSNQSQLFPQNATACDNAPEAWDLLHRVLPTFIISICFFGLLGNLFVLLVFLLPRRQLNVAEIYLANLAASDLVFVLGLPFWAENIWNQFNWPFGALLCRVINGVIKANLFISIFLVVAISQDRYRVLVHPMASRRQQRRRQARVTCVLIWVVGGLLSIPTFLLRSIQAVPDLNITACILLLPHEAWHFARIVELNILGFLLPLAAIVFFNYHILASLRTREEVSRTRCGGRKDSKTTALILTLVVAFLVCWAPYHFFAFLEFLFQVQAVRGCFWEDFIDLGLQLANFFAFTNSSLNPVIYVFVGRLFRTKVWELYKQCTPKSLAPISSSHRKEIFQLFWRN

[6] = target: Glucocorticoid receptor (Homo sapiens) (UniProt P04150); assay: Glucocorticoid Eurofins-Panlabs radioligand binding assay; settings: Compound concentration 10.0 uM
[7] = target: Neuropeptide Y receptor type 2 (Homo sapiens) (UniProt P49146); assay: Inhibition of Neuropeptide Y Y2 at 10 µM in the Eurofins-Panlabs radioligand binding assay (Eurofins_assay_257110); settings: Compound concentration 10.0 uM
[8] = target: Prostaglandin G/H synthase 2 (Homo sapiens) (UniProt P35354); assay: Inhibition of Cyclooxygenase COX-2 at compound concentration of 10.0 uM in the Eurofins-Panlabs enzyme assay (Eurofins_assay_118010); parameters: substrate with concentration 0.3 uM Arachidonic acid, incubation time 15 min, incubation temperature 37 C; settings: Compound concentration 10.0 uM
[9] = target: Phosphodiesterase 3 (Homo sapiens) (UniProt Q14432+Q13370); assay: Inhibition of Phosphodiesterase PDE3 at compound concentration of 10.0 uM in the Eurofins-Panlabs enzyme assay (Eurofins_assay_152000); format: protein assay; parameters: substrate with concentration 1.01 uM [3H] cAMP + cAMP, incubation time 20 min, incubation temperature 25 C; settings: Compound concentration 10.0 uM
[10] = target: Cholecystokinin receptor type A (Homo sapiens) (UniProt P32238); assay: Inhibition of Cholecystokinin CCK1 (CCKA) at 10 µM in the Eurofins-Panlabs radioligand binding assay (Eurofins_assay_218020); settings: Compound concentration 10.0 uM
[11] = target: Melanocortin receptor 3 (Homo sapiens) (UniProt P41968); assay: Inhibition of Melanocortin MC3 at 10 µM in the Eurofins-Panlabs radioligand binding assay (Eurofins_assay_251300); parameters: ligand concentration 0.035 nM; settings: Compound concentration 10.0 uM
[12] = target: 5-hydroxytryptamine receptor 1B (Homo sapiens) (UniProt P28222); assay: Inhibition of Serotonin (5-Hydroxytryptamine) 5-HT1B at 10 µM in the Eurofins-Panlabs radioligand binding assay (Eurofins_assay_271200); settings: Compound concentration 10.0 uM
[13] = target: 5-hydroxytryptamine receptor 6 (Homo sapiens) (UniProt P50406); assay: Inhibition of Serotonin (5-Hydroxytryptamine) 5-HT6 at 10 µM in the Eurofins-Panlabs radioligand binding assay (Eurofins_assay_272200); settings: Compound concentration 10.0 uM
5-hydroxytryptamine receptor 6 (Homo sapiens), sequence (P50406 whole entry): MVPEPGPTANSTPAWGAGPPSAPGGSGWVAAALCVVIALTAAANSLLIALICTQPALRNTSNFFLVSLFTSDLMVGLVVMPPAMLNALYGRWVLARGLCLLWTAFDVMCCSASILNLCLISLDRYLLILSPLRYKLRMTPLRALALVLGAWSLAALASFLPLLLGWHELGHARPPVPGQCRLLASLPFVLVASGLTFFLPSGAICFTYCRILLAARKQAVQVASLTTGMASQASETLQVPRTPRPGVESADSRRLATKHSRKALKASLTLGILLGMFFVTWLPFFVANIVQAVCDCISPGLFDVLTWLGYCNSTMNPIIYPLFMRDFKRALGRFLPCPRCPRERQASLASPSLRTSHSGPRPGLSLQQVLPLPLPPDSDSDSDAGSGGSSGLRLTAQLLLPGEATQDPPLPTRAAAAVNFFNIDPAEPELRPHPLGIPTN

[14] = target: Vasoactive intestinal polypeptide receptor 1 (Homo sapiens) (UniProt P32241); assay: Inhibition of Vasoactive Intestinal Peptide VIP1 at 10 µM in the Eurofins-Panlabs radioligand binding assay (Eurofins_assay_287010); settings: Compound concentration 10.0 uM
Vasoactive intestinal polypeptide receptor 1 (Homo sapiens), sequence (P32241 whole entry): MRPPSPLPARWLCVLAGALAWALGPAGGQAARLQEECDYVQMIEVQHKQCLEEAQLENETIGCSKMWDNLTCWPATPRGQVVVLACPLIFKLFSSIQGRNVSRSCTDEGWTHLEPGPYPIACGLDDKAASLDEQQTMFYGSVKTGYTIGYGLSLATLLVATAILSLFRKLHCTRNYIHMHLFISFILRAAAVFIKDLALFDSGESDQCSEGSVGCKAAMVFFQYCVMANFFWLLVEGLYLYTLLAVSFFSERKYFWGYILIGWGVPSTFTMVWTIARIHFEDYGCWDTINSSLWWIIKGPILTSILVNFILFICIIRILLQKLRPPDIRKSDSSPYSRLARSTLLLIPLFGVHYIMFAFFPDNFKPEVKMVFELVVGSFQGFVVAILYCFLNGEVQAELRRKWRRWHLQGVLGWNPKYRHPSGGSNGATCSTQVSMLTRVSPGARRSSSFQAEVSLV

[15] = target: MAP/microtubule affinity-regulating kinase 3 (Homo sapiens) (UniProt P27448); assay: Protein Serine/Threonine Kinase, MARK3 Eurofins-Panlabs enzyme assay; settings: Compound concentration 10.0 uM
[16] = target: Progesterone receptor (Homo sapiens) (UniProt P06401); assay: Inhibition of Progesterone PR-B at 10 µM in the Eurofins-Panlabs radioligand binding assay (Eurofins_assay_268020); parameters: ligand concentration 1.4 nM; settings: Compound concentration 10.0 uM
Progesterone receptor (Homo sapiens), sequence (P06401 whole entry): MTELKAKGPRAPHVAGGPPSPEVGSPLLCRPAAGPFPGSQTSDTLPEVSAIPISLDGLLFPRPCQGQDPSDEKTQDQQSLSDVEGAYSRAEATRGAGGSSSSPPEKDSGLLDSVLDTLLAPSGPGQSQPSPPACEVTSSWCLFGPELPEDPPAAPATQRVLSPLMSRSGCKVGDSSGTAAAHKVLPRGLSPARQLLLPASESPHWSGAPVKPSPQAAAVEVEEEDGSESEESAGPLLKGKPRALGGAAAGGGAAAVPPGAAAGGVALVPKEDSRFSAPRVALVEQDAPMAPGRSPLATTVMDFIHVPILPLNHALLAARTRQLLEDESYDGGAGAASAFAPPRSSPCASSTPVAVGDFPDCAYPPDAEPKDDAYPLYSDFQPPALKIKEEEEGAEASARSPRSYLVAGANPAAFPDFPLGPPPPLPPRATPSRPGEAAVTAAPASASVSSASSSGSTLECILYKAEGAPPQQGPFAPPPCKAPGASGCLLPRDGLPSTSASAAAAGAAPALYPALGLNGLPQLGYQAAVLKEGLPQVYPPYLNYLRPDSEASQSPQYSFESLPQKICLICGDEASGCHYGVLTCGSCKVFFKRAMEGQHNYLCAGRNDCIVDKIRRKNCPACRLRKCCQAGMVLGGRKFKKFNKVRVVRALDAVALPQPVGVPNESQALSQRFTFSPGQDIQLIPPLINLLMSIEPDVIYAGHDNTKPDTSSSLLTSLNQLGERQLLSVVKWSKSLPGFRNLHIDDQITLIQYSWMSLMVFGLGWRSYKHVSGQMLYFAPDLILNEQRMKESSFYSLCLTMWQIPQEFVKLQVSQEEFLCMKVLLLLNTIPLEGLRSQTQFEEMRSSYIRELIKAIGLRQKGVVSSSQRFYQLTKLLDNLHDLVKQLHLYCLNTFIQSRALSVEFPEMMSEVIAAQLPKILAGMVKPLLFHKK

[17] = target: Prostaglandin E2 receptor EP3 subtype (Homo sapiens) (UniProt P43115); assay: Prostanoid EP3 Eurofins-Panlabs radioligand binding assay; parameters: ligand concentration 0.5 nM, non-specific ligand with concentration 10 µM Prostaglandin EŽ2 (PGE2), incubation time 60 min, incubation temperature 25 °C; settings: Compound concentration 10.0 uM
[18] = target: Retinoic acid receptor RXR-alpha (Homo sapiens) (UniProt P19793); assay: Retinoid X Receptor RXRalpha Eurofins-Panlabs radioligand binding assay; settings: Compound concentration 10.0 uM
[19] = target: Insulin receptor (Homo sapiens) (UniProt P06213); assay: Protein Tyrosine Kinase, Insulin Receptor Eurofins-Panlabs enzyme assay; parameters: substrate with concentration 10 µg/mL Histone H1, incubation time 60 min, incubation temperature 25 °C; settings: Compound concentration 10.0 uM
Insulin receptor (Homo sapiens), sequence (P06213 28-758 limits assumed): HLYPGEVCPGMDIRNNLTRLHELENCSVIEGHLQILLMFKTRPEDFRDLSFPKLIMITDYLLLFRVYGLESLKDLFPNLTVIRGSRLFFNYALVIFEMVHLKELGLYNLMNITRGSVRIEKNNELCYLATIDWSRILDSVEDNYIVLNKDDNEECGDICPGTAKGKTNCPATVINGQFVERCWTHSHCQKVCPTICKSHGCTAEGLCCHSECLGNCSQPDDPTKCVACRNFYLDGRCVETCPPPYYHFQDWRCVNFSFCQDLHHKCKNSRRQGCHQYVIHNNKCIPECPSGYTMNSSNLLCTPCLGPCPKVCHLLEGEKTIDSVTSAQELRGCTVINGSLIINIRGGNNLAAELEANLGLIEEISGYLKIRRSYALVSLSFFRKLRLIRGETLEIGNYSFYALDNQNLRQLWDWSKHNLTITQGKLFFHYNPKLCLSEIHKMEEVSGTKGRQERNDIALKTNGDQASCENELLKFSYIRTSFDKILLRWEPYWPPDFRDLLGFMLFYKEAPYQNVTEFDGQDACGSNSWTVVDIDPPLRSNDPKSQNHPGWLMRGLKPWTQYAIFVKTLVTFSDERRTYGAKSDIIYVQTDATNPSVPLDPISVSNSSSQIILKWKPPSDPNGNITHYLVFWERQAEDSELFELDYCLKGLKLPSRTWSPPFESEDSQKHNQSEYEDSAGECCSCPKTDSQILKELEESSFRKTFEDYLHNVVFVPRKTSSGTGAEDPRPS
Insulin receptor (Homo sapiens), sequence (P06213 763-1382 limits assumed): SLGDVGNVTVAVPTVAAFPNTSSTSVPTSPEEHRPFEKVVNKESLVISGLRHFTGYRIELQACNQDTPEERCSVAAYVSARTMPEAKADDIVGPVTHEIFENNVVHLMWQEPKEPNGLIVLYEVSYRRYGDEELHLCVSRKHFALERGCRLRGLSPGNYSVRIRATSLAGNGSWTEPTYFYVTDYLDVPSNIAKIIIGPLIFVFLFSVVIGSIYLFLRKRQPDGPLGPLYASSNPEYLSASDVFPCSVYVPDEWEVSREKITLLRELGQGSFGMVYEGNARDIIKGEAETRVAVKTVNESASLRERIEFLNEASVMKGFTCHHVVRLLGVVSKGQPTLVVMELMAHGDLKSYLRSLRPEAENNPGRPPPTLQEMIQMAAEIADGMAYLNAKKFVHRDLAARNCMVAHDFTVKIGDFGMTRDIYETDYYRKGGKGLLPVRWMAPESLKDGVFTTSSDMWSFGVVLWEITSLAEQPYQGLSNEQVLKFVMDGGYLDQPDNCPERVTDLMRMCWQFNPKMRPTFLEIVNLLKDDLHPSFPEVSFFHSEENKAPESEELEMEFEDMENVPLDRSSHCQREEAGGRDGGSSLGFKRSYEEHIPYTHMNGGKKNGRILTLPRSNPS

[20] = target: Type-1 angiotensin II receptor (Homo sapiens) (UniProt P30556); assay: Angiotensin AT1 Eurofins-Panlabs radioligand binding assay; settings: Compound concentration 10.0 uM
[21] = target: Somatostatin receptor type 2 (Homo sapiens) (UniProt P30874); assay: Somatostatin sst2 Eurofins-Panlabs radioligand binding assay; parameters: ligand concentration 0.03 nM; settings: Compound concentration 10.0 uM
Somatostatin receptor type 2 (Homo sapiens), sequence (P30874 whole entry): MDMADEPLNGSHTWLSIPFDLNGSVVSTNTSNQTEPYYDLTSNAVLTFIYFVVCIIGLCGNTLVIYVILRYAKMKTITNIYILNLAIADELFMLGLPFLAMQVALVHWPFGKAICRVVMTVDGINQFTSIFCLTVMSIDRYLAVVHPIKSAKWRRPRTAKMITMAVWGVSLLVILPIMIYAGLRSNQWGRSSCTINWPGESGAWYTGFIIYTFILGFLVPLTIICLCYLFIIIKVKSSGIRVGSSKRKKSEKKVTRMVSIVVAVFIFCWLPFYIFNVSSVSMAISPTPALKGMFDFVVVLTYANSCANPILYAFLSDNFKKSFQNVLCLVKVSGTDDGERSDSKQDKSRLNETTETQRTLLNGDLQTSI

[22] = target: 5-hydroxytryptamine receptor 5A (Homo sapiens) (UniProt P47898); settings: Compound concentration 10.0 uM
5-hydroxytryptamine receptor 5A (Homo sapiens), sequence (P47898 whole entry): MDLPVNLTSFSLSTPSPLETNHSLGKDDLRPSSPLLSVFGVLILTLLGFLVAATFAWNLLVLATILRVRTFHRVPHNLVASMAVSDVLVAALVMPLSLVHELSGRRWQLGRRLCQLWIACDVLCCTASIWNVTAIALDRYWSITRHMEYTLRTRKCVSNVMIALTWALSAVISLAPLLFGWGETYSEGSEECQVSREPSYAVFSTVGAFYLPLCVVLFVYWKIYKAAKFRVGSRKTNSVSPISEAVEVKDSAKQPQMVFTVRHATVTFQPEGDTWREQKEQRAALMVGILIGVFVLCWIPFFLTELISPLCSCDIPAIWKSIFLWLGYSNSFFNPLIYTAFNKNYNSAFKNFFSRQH

[23] = target: D(1A) dopamine receptor (Homo sapiens) (UniProt P21728); settings: Compound concentration 10.0 uM
[24] = target: Histamine H2 receptor (Homo sapiens) (UniProt P25021); settings: Compound concentration 10.0 uM
[25] = target: T1, Muscarinic acetylcholine receptor M1 (Homo sapiens) (UniProt P11229); settings: Compound concentration 10.0 uM
T1 sequence (whole entry): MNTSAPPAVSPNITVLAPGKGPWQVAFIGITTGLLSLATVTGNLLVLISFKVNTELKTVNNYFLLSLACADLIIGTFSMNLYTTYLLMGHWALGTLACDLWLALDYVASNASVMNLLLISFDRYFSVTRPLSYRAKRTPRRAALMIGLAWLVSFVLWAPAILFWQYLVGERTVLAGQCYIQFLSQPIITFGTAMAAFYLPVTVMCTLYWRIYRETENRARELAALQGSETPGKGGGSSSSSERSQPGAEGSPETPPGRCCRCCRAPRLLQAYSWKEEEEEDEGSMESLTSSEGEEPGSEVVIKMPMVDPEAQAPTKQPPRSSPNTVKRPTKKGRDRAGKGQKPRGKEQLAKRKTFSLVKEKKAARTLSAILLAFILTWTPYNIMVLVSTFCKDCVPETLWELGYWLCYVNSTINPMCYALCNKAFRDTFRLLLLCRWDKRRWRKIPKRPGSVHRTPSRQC

[26] = target: T2, Muscarinic acetylcholine receptor M2 (Homo sapiens) (UniProt P08172); settings: Compound concentration 10.0 uM
T2 sequence (whole entry): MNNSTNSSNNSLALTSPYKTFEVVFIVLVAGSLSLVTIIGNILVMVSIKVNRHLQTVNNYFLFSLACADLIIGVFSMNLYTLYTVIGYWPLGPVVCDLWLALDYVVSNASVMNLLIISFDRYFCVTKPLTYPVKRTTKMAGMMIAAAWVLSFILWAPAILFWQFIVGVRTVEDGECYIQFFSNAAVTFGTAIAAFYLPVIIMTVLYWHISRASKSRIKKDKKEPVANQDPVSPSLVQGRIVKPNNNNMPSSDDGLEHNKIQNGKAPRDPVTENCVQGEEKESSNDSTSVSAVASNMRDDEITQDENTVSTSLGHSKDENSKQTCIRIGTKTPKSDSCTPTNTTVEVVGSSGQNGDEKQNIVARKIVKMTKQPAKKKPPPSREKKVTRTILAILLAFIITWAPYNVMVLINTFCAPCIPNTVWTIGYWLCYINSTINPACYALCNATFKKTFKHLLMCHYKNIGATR

[27] = target: 5-hydroxytryptamine receptor 2B (Homo sapiens) (UniProt P41595); settings: Compound concentration 10.0 uM
[28] = target: Beta-3 adrenergic receptor (Homo sapiens) (UniProt P13945); settings: Compound concentration 10.0 uM
[29] = target: Vasopressin V1a receptor (Homo sapiens) (UniProt P37288); settings: Compound concentration 10.0 uM

5-hydroxytryptamine receptor 3A (Homo sapiens), sequence (P46098 whole entry): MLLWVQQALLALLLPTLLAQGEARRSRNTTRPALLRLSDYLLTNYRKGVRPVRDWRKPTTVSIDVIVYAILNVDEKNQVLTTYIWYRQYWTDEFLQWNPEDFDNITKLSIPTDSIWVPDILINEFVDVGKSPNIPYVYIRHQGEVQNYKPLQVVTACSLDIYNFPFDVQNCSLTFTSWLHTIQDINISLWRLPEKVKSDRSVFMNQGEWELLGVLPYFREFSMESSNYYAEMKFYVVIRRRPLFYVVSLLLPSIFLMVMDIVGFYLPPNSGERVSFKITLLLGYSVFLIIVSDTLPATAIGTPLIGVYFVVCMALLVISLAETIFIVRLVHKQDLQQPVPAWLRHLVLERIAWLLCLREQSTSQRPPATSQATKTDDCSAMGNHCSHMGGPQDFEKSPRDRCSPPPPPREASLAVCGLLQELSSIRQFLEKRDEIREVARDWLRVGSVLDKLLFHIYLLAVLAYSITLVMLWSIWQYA

CC(C)CC(=O)N1CCc2nc(-c3ccc(Br)cc3)nc(N(C)Cc3ccccc3)c2C1 [THPP-1-NC]
inactive: residual activity [1] 93% | residual activity [2] 100% | inhibition [3] -4.38% | inhibition [4] 15.3%

COCCOc1nc(-c2ccc(Cl)nc2)nc2c1CN(C(=O)c1ncn3ccccc13)CC2 [THPP-1]
inactive: inhibition [5] 28% | inhibition [6] -6% | inhibition [7] 1% | inhibition [8] -10% | inhibition [9] 45% | inhibition [10] 5% | inhibition [11] 0% | inhibition [12] 7% | inhibition [13] 5% | inhibition [14] 8% | inhibition [15] 7% | inhibition [16] 12% | inhibition [17] -1% | inhibition [18] -4% | inhibition [19] -2% | inhibition [20] 3% | inhibition [21] 0% | inhibition [22] -7.27% | inhibition [23] 6% | inhibition [24] 2% | inhibition [25] 6% | inhibition [26] 5% | inhibition [27] -1% | inhibition [28] 1% | inhibition [29] 1%
